Key:
[1] = tested on: GDNF release by primary rat astrocytes; assay: GDNF release by primary rat astrocytes, in situ ELISA; assay type: cell-based; conditions: 1 μM, 5 days incubation
Method: Experimental Protocol-In Situ ELISA on Primary Astrocytes Rat Primary Culture of Astrocytes Rat mixed glial cells were cultured as described by McCarthy et al. Primary rat glial cells were prepared from the cortical of newborn Wistar rats (1 day). Briefly, meninges and blood vessels of the mice cortex were removed and placed in ice-cold medium of Leibovitz (L15; PanBiotech, ref P04-27055, batch 4511117) containing 2% Penicillin-Streptomycin (PS; PanBiotech, ref P06-07100, batch 2110917) and 1% of bovine serum albumin (BSA; […] Cells were then submitted to a supplementary incubation of 15 min. at 37° C. in presence of deoxyribonuclease I (0.1 mg/mL Panbiotech, ref: P60-37780100, batch: H140508). Cells were then pelleted (5 min. at 1200 rpm) and trypsinization was stopped by adding DMEM (PanBiotech, Ref P04-03600, Batch 8420517) supplemented with 10% FCS (Fischer, Ref 10270106, batch 41A0940K), 1 mM of Na/pyruvate (PanBiotech, ref: P04-43100, batch 3470914). Cells suspension was mechanically dissociated and filtered through […] diameter nylon meshes (BD Falcon, Ref: 352340). The cells were collected by centrifugation at 1200 rpm/min for 10 min, resuspended in culture medium and then plated in culture flasks (Dutscher, ref: 690175). Cells were seeded at a density of 1.25×10^5 cells/cm^2 and culture in 5% CO2 at 37° C. Medium was changed 3 times per week. At confluency, astrocytes were plated in 96-well Nunc MaxiSorp surface polystyrene flat-bottom immunoplate precoated with poly-D-lysine during 30 min (Sigma, Ref: […], batch: SLBS8705) and an anti-GDNF monoclonal antibody overnight at 4° C. at a density of 30,000 cells/well. […] At the end of drug treatment, cells were carefully washed with TBST (20 mM Tris-HCl (pH 7.6), 150 mM NaCl, and 0.05% (vol/vol) Tween 20). The plate was then incubated with the polyclonal anti-human GDNF antibody overnight. The amount of specifically bound polyclonal antibody, which when exposed to chromogenic substrate (TMB reagent; Promega), changes color in proportion to the amount of GDNF present in the sample. The color intensity was quantified by measuring the absorbance at 450 nm. GDNF standards, ranging in concentration from 0 to 500 pg/mL were added in parallel wells in the same medium than hippocampal neurons.

[2] = tested on: BDNF expression by astrocytes; assay: BDNF expression by astrocytes, qPCR; assay type: cell-based, rat; conditions: for BDNF expression astrocytes, % increase of control conditions: 25 ug/mL, 5 days incubation
Method: For analysis of BDNF expression by real-time quantitative polymerase chain reaction (qPCR), astrocytes were seeded in 24 well-plates pre-coated with poly-D-lysine. After 1 day of culture, fresh serum free medium containing compounds was added during 5 days at 37° C. At the end of the incubation time total RNA content were extracted and reverse transcription was performed. Expression levels were calculated using the ΔCt method where the expression level of the mRNA of interest is given by 2-ΔCT with ΔCT=CT target mRNA−CT reference mRNA (Gapdh), in the same sample.
Rat Primary Culture of Astrocytes—rat mixed glial cells were cultured as described by McCarthy et al., 1980. Primary rat glial cells were prepared from the cortical of newborn Wistar rats (1 day). Briefly, meninges and blood vessels of the mice cortex were removed and placed in ice-cold medium of Leibovitz (L15; PanBiotech, ref P04-27055, batch 4511117) containing 2% of Penicillin-Streptomycin (PS; PanBiotech, ref P06-07100, batch 2110917) and 1% of bovine serum albumin (BSA; PanBiotech, ref P06-1391100, batch H171006). Tissues were dissociated with 0.25% trypsin-EDTA (PanBiotech, ref P10-023100, batch 8970318) at 37° C. for 10 min. Cells were then submitted to a supplementary incubation of 15 min at 37° C. in presence of deoxyribonuclease I (0.1 mg/ml Panbiotech, ref: P60-37780100, batch: H170706). Cells were then pelleted (5 min at 1200 rpm) and trypsinization was stopped by adding DMEM (Panbiotech, Ref P04-03600, Batch 5181217) supplemented with 10% FCS (Fischer, Ref 10270106, batch 42G2068K), 1 mM of Na/pyruvate (PanBiotech, ref: P04-43100, batch: 3470914) and 2% PS. Cells suspension was mechanically dissociated and filtered through 40 μm diameter nylon meshes (BD Falcon, Ref: 352340). The cells were collected by centrifugation at 1200 rpm/min for 10 min, re-suspended in culture medium and then plated in culture flasks (Dutscher, ref: 690175). Cells were seeded at a density of 1.25×10^5 cells/cm^2 and cultured in 5% CO2 at 37° C. Medium was changed three times per week.
Analysis of BDNF expression by real-time quantitative polymerase chain reaction (PCR): astrocytes were seeded in 24 well-plates pre-coated with poly-D-lysine (Sigma, ref P7886, batch: SLBQ9797V). After 1 day of culture, fresh serum free medium containing compounds was added during 5 days at 37° C. At the end of the incubation time, medium was removed and total RNA content were extracted using kit nucleo spin RNS XS (Macherey Nagel; 20 μL/well). 6 wells/condition were done. RNA concentration was determined using a Nanodrop 2000 spectrophotometer (Life Technologies ThermoFisher Scientific, Villebon sur Yvette, France).
Reverse transcription was performed on 500 ng of RNA using the high capacity RNA-to-cDNA mix (Applied Biotechnologies). qPCR was performed on 12.5 ng of cDNA using the following primers, purchased from Applied Biotechnology.
For qPCR reactions, the kit TaqMan™ Fast Universal PCR Master Mix (2×) was used. The following volumes were used: mix: 10 uL, enzyme: 4 uL, oligo: 1 uL each, cDNA: 5 uL (12,5 ng). For the comparisons between various compounds and concentrations, expression levels were calculated using the ΔCt method where the expression level of the mRNA of interest is given by 2-ΔCT with ΔCT=CT target mRNA−CT reference mRNA (Gapdh), in the same sample. For the cultures treated with GA or the unknown compound, relative expression levels were determined according to the ΔΔCt method where the expression level of the mRNA of interest is given by 2-ΔΔCT where ΔΔCT=ΔCt for treated cultures−ΔCt for untreated cultures.

[3] = modified release (MR) formulation of Compound (I) that reduces QT prolongation; cited from earlier work
[4] = tested on: BDNF release by primary rat astrocytes; assay: BDNF release by primary rat astrocytes, in situ ELISA; assay type: cell-based; conditions: 1 μM, 5 days incubation
Method: At confluency, astrocytes were plated in 96-well Nunc MaxiSorp surface polystyrene flat-bottom immunoplate precoated with poly-D-lysine during 30 min. and an anti-BDNF monoclonal antibody overnight at 4° C. at a density of 30,000 cells/well. […] At the end of drug treatment, cells were carefully washed with TBST (20 mM Tris-HCl (pH 7.6), 150 mM NaCl, and 0.05% (vol/vol) Tween 20). The plate was then incubated with the polyclonal anti-human BDNF antibody overnight and BDNF quantified. Experimental Protocol-In Situ ELISA on Primary Astrocytes Rat Primary Culture of Astrocytes Rat mixed glial cells were cultured as described by McCarthy et al. Primary rat glial cells were prepared from the cortical of newborn Wistar rats (1 day). […] Medium was changed 3 times per week. At confluency, astrocytes were plated in 96-well Nunc MaxiSorp surface polystyrene flat-bottom immunoplate precoated with poly-D-lysine during 30 min (Sigma, Ref: […], batch: SLBS8705) and an anti-BDNF monoclonal antibody overnight at 4° C. at a density of 30,000 cells/well. (Balkowiec and Katz “Cellular Mechanisms Regulating Activity-Dependent Release of Native Brain-Derived Neurotrophic Factor from Hippocampal Neurons” J. […] At the end of drug treatment, cells were carefully washed with TBST (20 mM Tris-HCl (pH 7.6), 150 mM NaCl, and 0.05% (vol/vol) Tween 20). The plate was then incubated with the polyclonal anti-human BDNF antibody overnight. The amount of specifically bound polyclonal antibody, which when exposed to chromogenic substrate (TMB reagent; Promega), changes color in proportion to the amount of BDNF present in the sample. The color intensity was quantified by measuring the absorbance at 450 nm. BDNF standards, ranging in concentration from 0 to 500 pg/mL were added in parallel wells in the same medium than hippocampal neurons.

[5] = tested on: BDNF release by primary hippocampal neurons; assay: BDNF release by primary hippocampal neurons, in situ ELISA; assay type: cell-based, rat; conditions: 1 μM, 3 days incubation
Method: Hippocampal neurons were plated in 96-well Nunc MaxiSorp surface polystyrene flat-bottom immunoplate precoated with poly-D-lysine during 30 min an anti-BDNF monoclonal antibody overnight at 4° C. at a density of 70,000 cells/well. […] At the end of drug treatment, cells were carefully washed with TBST (20 mM Tris-HCl (pH 7.6), 150 mM NaCl, and 0.05% (vol/vol) Tween 20). The plate was then incubated with the polyclonal anti-human BDNF antibody overnight and BDNF quantified.
Experimental Protocol—In Situ ELISA on Primary Hippocampal Neurons Hippocampal Neuron Culture
Newborn rats (Wistar rats, Janvier) were deeply anesthetized by hypothermia and decapitated. […] Cells were mechanically dissociated by 3 passages through a 10 ml pipette. Cells were then centrifuged at 515×g for 10 min at 4° C. […] Viable cells were counted in a Neubauer cytometer using the trypan blue exclusion test.
Hippocampal neurons were plated in 96-well Nunc MaxiSorp surface polystyrene flat-bottom immunoplate precoated with poly-D-lysine during 30 min (Sigma, Ref: P7886, batch: SLBS8705) an anti-BDNF monoclonal antibody overnight at 4° C. at a density of 70000 cells/well.
At the end of drug treatment, cells were carefully washed with TBST (20 mM Tris-HCl (pH 7.6), 150 mM NaCl, and 0.05% (vol/vol) Tween 20). The plate was then incubated with the polyclonal anti-human BDNF antibody overnight. The amount of specifically bound polyclonal antibody was then detected through the use of the anti-IgY-horseradish peroxidase tertiary antibody, which when exposed to the chromogenic substrate (TMB reagent; Promega), changes color in proportion to the amount of BDNF present in the sample. The color intensity was quantified by measuring the absorbance at 450 nm.

Cc1cccc([C@H](C)c2cnc[nH]2)c1C [Dexmedetomidine, dexmedetomidine, reference compound]
GDNF release astrocytes, % increase of control conditions [1]: 15.8% | GDNF release astrocytes, % increase of control conditions ([1]; listed as dexmedetomidine): 15.8%

glatiramer acetate [reference compound]
BDNF expression astrocytes, % increase of control conditions [2]: 10% | BDNF expression astrocytes, % increase of control conditions ([2]; listed as glatiramer acetate): 10% | Effect on BDNF expression by astrocytes compared to control condition (statistical) ([2]; 25 μg/mL, 5 days, ns p>0.05): no effect

O=C1c2ccccc2CN1CC1CCN(CC(O)c2ccc(F)cc2)CC1 (stereo not shown) [BFB-520]
maximum plasma concentration (Cmax) [3]: < 12 ng/mL

CCCN1CCC(c2cccc(S(C)(=O)=O)c2)CC1 [Pridopidine, pridopidine, reference compound]
BDNF release astrocytes, % increase of control conditions [4]: 22.3% | BDNF release astrocytes, % increase of control conditions ([4]; listed as pridopidine): 22% | BDNF release hippocampal neurons, % increase of control conditions [5]: 18.4% | BDNF release hippocampal neurons, % increase of control conditions ([5]; listed as pridopidine): 18.4%
